# Assay results from PubChem BioAssay (NCI).
#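 Exposure lasted 48 hours, with cells grown in 96-well plates and compounds tested at five concentrations. Definition used: TGI = concentration required for complete inhibition of growth.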
# Tests used:
# Assay in all cases: NCI anticancer screen, dose series, 48 h
# 786-0 renal = system: 786-0 renal
# A498 renal = system: A498 renal
# A549 NSCLC = system: A549 NSCLC
# ACHN renal = system: ACHN renal
# CCRF-CEM leukemia = system: CCRF-CEM leukemia
# COLO 205 colon = system: COLO 205 colon
# DLD-1 colon = system: DLD-1 colon
# DMS 114 small cell lung = system: DMS 114 small cell lung
# DMS 273 small cell lung = system: DMS 273 small cell lung
# EKVX NSCLC = system: EKVX NSCLC
# HCT-116 colon = system: HCT-116 colon
# HCT-15 colon = system: HCT-15 colon
# HL-60(TB) leukemia = system: HL-60(TB) leukemia
# HOP-18 NSCLC = system: HOP-18 NSCLC
# HOP-62 NSCLC = system: HOP-62 NSCLC
# HOP-92 NSCLC = system: HOP-92 NSCLC
# HT29 colon = system: HT29 colon
# IGROV1 ovarian = system: IGROV1 ovarian
# K-562 leukemia = system: K-562 leukemia
# KM12 colon = system: KM12 colon
# KM20L2 colon = system: KM20L2 colon
# LOX IMVI melanoma = system: LOX IMVI melanoma
# LXFL 529 NSCLC = system: LXFL 529 NSCLC
# M14 melanoma = system: M14 melanoma
# M19-MEL melanoma = system: M19-MEL melanoma
# MOLT-4 leukemia = system: MOLT-4 leukemia
# NCI-H226 lung = system: NCI-H226 lung
# NCI-H23 lung = system: NCI-H23 lung
# NCI-H460 lung = system: NCI-H460 lung
# NCI-H522 lung = system: NCI-H522 lung
# OVCAR-4 ovarian = system: OVCAR-4 ovarian
# OVCAR-5 ovarian = system: OVCAR-5 ovarian
# OVCAR-8 ovarian = system: OVCAR-8 ovarian
# RPMI-8226 leukemia = system: RPMI-8226 leukemia
# SF-268 CNS = system: SF-268 CNS
# SF-295 CNS = system: SF-295 CNS
# SF-539 CNS = system: SF-539 CNS
# SK-MEL-28 melanoma = system: SK-MEL-28 melanoma
# SK-MEL-5 melanoma = system: SK-MEL-5 melanoma
# SN12C renal = system: SN12C renal
# SNB-19 CNS = system: SNB-19 CNS
# SNB-75 CNS = system: SNB-75 CNS
# SNB-78 CNS = system: SNB-78 CNS
# SR leukemia = system: SR leukemia
# SW-620 colon = system: SW-620 colon
# U251 CNS = system: U251 CNS
# UACC-257 melanoma = system: UACC-257 melanoma
# UACC-62 melanoma = system: UACC-62 melanoma
# BT-549 breast = system: BT-549 breast
# CAKI-1 renal = system: CAKI-1 renal
# DU-145 prostate = system: DU-145 prostate
# HCC-2998 colon = system: HCC-2998 colon
# HS 578T breast = system: HS 578T breast
# MALME-3M melanoma = system: MALME-3M melanoma
# MCF7 breast = system: MCF7 breast
# MDA-MB-231 breast = system: MDA-MB-231 breast
# MDA-MB-435 = system: MDA-MB-435
# MDA-N = system: MDA-N
# NCI/ADR-RES ovarian = system: NCI/ADR-RES ovarian
# OVCAR-3 ovarian = system: OVCAR-3 ovarian
# PC-3 prostate = system: PC-3 prostate
# RXF 393 renal = system: RXF 393 renal
# SK-MEL-2 melanoma = system: SK-MEL-2 melanoma
# SK-OV-3 ovarian = system: SK-OV-3 ovarian
# T-47D breast = system: T-47D breast
# TK-10 renal = system: TK-10 renal
# UO-31 renal = system: UO-31 renal
compound,measurement,setting,value
COc1ccc(/C=C/C(=O)c2cc(C(=O)O)c(OC)cc2OC)cc1OC,TGI,786-0 renal,> 100 µM
same,TGI,A498 renal,> 100 µM
same,TGI,A549 NSCLC,> 100 µM
same,TGI,ACHN renal,> 100 µM
same,TGI,CCRF-CEM leukemia,> 100 µM
same,TGI,COLO 205 colon,> 100 µM
same,TGI,DLD-1 colon,> 100 µM
same,TGI,DMS 114 small cell lung,> 100 µM
same,TGI,DMS 273 small cell lung,> 100 µM
same,TGI,EKVX NSCLC,> 100 µM
same,TGI,HCT-116 colon,> 100 µM
same,TGI,HCT-15 colon,> 100 µM
same,TGI,HL-60(TB) leukemia,> 100 µM
same,TGI,HOP-18 NSCLC,> 100 µM
same,TGI,HOP-62 NSCLC,> 100 µM
same,TGI,HOP-92 NSCLC,> 100 µM
same,TGI,HT29 colon,> 100 µM
same,TGI,IGROV1 ovarian,> 100 µM
same,TGI,K-562 leukemia,> 100 µM
same,TGI,KM12 colon,> 100 µM
same,TGI,KM20L2 colon,> 100 µM
same,TGI,LOX IMVI melanoma,> 100 µM
same,TGI,LXFL 529 NSCLC,> 100 µM
same,TGI,M14 melanoma,> 100 µM
same,TGI,M19-MEL melanoma,> 100 µM
same,TGI,MOLT-4 leukemia,> 100 µM
same,TGI,NCI-H226 lung,> 100 µM
same,TGI,NCI-H23 lung,> 100 µM
same,TGI,NCI-H460 lung,> 100 µM
same,TGI,NCI-H522 lung,> 100 µM
same,TGI,OVCAR-4 ovarian,> 100 µM
same,TGI,OVCAR-5 ovarian,> 100 µM
same,TGI,OVCAR-8 ovarian,> 100 µM
same,TGI,RPMI-8226 leukemia,> 100 µM
same,TGI,SF-268 CNS,> 100 µM
same,TGI,SF-295 CNS,> 100 µM
same,TGI,SF-539 CNS,> 100 µM
same,TGI,SK-MEL-28 melanoma,> 100 µM
same,TGI,SK-MEL-5 melanoma,> 100 µM
same,TGI,SN12C renal,> 100 µM
same,TGI,SNB-19 CNS,> 100 µM
same,TGI,SNB-75 CNS,> 100 µM
same,TGI,SNB-78 CNS,> 100 µM
same,TGI,SR leukemia,> 100 µM
same,TGI,SW-620 colon,> 100 µM
same,TGI,U251 CNS,> 100 µM
same,TGI,UACC-257 melanoma,> 100 µM
same,TGI,UACC-62 melanoma,> 100 µM
CCCCCCCCCCCCCCCC(=O)Nc1ccn(C2OC(CO)C(O)C2O)c(=O)n1 (stereo not given),TGI,786-0 renal,> 100 µM
same,TGI,A498 renal,> 100 µM
same,TGI,A549 NSCLC,> 100 µM
same,TGI,ACHN renal,99.4 µM
same,TGI,BT-549 breast,> 100 µM
same,TGI,CAKI-1 renal,> 100 µM
same,TGI,CCRF-CEM leukemia,7.28 µM
same,TGI,COLO 205 colon,> 100 µM
same,TGI,DLD-1 colon,> 100 µM
same,TGI,DMS 114 small cell lung,> 100 µM
same,TGI,DMS 273 small cell lung,> 100 µM
same,TGI,DU-145 prostate,> 50.3 µM
same,TGI,EKVX NSCLC,> 100 µM
same,TGI,HCC-2998 colon,> 100 µM
same,TGI,HCT-116 colon,> 100 µM
same,TGI,HCT-15 colon,> 100 µM
same,TGI,HL-60(TB) leukemia,43.3 µM
same,TGI,HOP-18 NSCLC,> 100 µM
same,TGI,HOP-62 NSCLC,> 88 µM
same,TGI,HOP-92 NSCLC,85.5 µM
same,TGI,HS 578T breast,> 91.4 µM
same,TGI,HT29 colon,> 100 µM
same,TGI,IGROV1 ovarian,> 100 µM
same,TGI,K-562 leukemia,> 100 µM
same,TGI,KM12 colon,> 100 µM
same,TGI,KM20L2 colon,> 100 µM
same,TGI,LOX IMVI melanoma,38 µM
same,TGI,LXFL 529 NSCLC,> 100 µM
same,TGI,M14 melanoma,32.5 µM
same,TGI,M19-MEL melanoma,> 100 µM
same,TGI,MALME-3M melanoma,> 100 µM
same,TGI,MCF7 breast,> 100 µM
same,TGI,MDA-MB-231 breast,> 100 µM
same,TGI,MDA-MB-435,> 100 µM
same,TGI,MDA-N,> 100 µM
same,TGI,MOLT-4 leukemia,17.3 µM
same,TGI,NCI-H226 lung,> 100 µM
same,TGI,NCI-H23 lung,81.5 µM
same,TGI,NCI-H460 lung,> 65.6 µM
same,TGI,NCI-H522 lung,> 79.7 µM
same,TGI,NCI/ADR-RES ovarian,> 100 µM
same,TGI,OVCAR-3 ovarian,> 100 µM
same,TGI,OVCAR-4 ovarian,> 100 µM
same,TGI,OVCAR-5 ovarian,> 100 µM
same,TGI,OVCAR-8 ovarian,> 100 µM
same,TGI,PC-3 prostate,> 100 µM
same,TGI,RPMI-8226 leukemia,> 100 µM
same,TGI,RXF 393 renal,> 97.2 µM
same,TGI,SF-268 CNS,> 100 µM
same,TGI,SF-295 CNS,> 100 µM
same,TGI,SF-539 CNS,> 100 µM
same,TGI,SK-MEL-2 melanoma,> 100 µM
same,TGI,SK-MEL-28 melanoma,> 100 µM
same,TGI,SK-MEL-5 melanoma,> 100 µM
same,TGI,SK-OV-3 ovarian,> 100 µM
same,TGI,SN12C renal,> 100 µM
same,TGI,SNB-19 CNS,> 80.8 µM
same,TGI,SNB-75 CNS,> 90.4 µM
same,TGI,SNB-78 CNS,> 100 µM
same,TGI,SR leukemia,62.7 µM
same,TGI,SW-620 colon,> 100 µM
same,TGI,T-47D breast,> 100 µM
same,TGI,TK-10 renal,> 100 µM
same,TGI,U251 CNS,> 100 µM
same,TGI,UACC-257 melanoma,> 100 µM
same,TGI,UACC-62 melanoma,> 100 µM
same,TGI,UO-31 renal,> 43.9 µM
